Activity calls are given as the source filed them. The calls are words filed in the database; no cut-off is given here.
Experiments:
[1] = molecular target: T1, Histone deacetylase (Homo sapiens) (UniProt Q13547+O15379+Q9UBN7+Q92769+Q9UQL6+Q8WUI4+Q9BY41+Q96DB2+P56524+Q9UKV0+Q969S8); assay: Inhibition of HDAC in human HeLa nuclear extract using Boc-Lys(Ac)-AMC as substrate at 10000 nM incubated for 0.5 hrs by microplate reader analysis relative to control; type: cell-free
[2] = molecular target: T1, Histone deacetylase (Homo sapiens); assay: Inhibition of HDAC in human HeLa nuclear extract using Boc-Lys(Ac)-AMC as substrate at 200 nM incubated for 0.5 hrs by microplate reader analysis relative to control; type: cell-free
Histone deacetylase = assay: Inhibition of HDAC in human HeLa nuclear extract using Boc-Lys(Ac)-AMC as substrate incubated for 0.5 hrs by microplate reader analysis; type: cell-based
MOLM-13 [3] = assay: Antiproliferative activity against human MOLM-13 cells incubated for 48 hrs; details: MOLM-13, 48 h
KG-1 = assay: Antiproliferative activity against human KG-1 cells incubated for 48 hrs; details: KG-1, 48 h
THP-1 = assay: Antiproliferative activity against human THP-1 cells incubated for 48 hrs; details: THP-1, 48 h
[4] = molecular target: T2, Receptor-type tyrosine-protein kinase FLT3 (Homo sapiens, UniProt P36888); assay: Inhibition of FLT3 (unknown origin) incubated for 40 mins in presence of ATP by kinase-glo plus luminescence assay
T2 sequence (P36888 whole entry): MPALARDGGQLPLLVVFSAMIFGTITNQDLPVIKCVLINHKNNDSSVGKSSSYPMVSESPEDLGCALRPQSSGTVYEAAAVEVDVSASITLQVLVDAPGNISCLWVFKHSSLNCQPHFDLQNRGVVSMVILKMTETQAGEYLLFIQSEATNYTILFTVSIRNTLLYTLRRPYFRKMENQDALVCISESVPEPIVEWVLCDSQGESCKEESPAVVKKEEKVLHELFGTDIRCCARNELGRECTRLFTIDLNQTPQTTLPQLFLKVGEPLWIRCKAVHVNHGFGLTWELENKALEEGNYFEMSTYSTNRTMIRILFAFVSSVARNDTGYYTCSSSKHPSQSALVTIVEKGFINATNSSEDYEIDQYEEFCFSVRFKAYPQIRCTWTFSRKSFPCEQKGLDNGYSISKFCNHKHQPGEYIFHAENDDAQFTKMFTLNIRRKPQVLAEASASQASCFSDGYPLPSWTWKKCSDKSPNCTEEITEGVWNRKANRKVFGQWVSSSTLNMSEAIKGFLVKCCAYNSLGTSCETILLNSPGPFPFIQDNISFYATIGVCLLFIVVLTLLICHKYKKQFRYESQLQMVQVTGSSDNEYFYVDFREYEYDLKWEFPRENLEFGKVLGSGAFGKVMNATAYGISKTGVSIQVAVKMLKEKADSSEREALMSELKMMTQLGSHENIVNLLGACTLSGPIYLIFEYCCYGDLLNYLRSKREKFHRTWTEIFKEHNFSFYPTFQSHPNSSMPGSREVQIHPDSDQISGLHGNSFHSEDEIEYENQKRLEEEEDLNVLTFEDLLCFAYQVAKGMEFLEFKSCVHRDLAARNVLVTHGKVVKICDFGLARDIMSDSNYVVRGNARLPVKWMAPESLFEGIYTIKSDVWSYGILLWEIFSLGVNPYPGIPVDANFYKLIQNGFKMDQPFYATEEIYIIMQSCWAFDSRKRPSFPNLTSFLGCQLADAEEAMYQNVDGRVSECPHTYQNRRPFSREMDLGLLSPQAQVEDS

K562 = assay: Antiproliferative activity against human K562 cells incubated for 48 hrs; details: K562, 48 h
[5] = Toxicity in BALB/c mouse xenografted with human MOLM-13 cells assessed as lung damage at 10 mg/kg, IG qd administered 5 days a week and measured on day 9 in presence of vorinostat by H and E staining based analysis; type: organism-based; details: in vivo, po, 216 h, time 9 day
MOLM-13 [6] = assay: Induction of cell cycle arrest in human MOLM-13 cells assessed as accumulation of cells at S-phase at 0.05 uM measured for 48 hrs by PI/RNase staining based flow cytometric analysis (reference value: 42.95%); type: functional
MOLM-13 [7] = assay: Induction of apoptosis in human MOLM-13 cells assessed as viable cells at 0.1 uM incubated for 48 hrs by Annexin V-FITC staining based flow cytometry analysis (reference value: 94.5 %); type: functional; details: Homo sapiens, MOLM-13, read-out: Activity
MOLM-13 [8] = assay: Induction of apoptosis in human MOLM-13 cells assessed as late apoptotic cells at 0.1 uM incubated for 48 hrs in presence of vorinostat by Annexin V-FITC staining based flow cytometry analysis (reference value: 1.40 %); type: functional
[9] = Cytotoxicity against HEK293T cells incubated for 48 hrs; type: toxicity, cell-based, HEK-293T; details: human
MOLM-13 [10] = assay: Induction of cell cycle arrest in human MOLM-13 cells assessed as accumulation of cells at G2M phase at 0.05 uM measured for 48 hrs by PI/RNase staining based flow cytometric analysis (reference value: 10.81%); type: functional
MOLM-13 [11] = assay: Induction of apoptosis in human MOLM-13 cells assessed as necrotic at 0.1 uM incubated for 48 hrs by Annexin V-FITC staining based flow cytometry analysis (reference value: 0.013 %); type: functional
MOLM-13 [12] = assay: Induction of apoptosis in human MOLM-13 cells assessed as early apoptotic cells at 0.1 uM incubated for 48 hrs in presence of vorinostat by Annexin V-FITC staining based flow cytometry analysis (reference value: 4.07 %); type: functional
[13] = Toxicity in BALB/c mouse xenografted with human MOLM-13 cells assessed as body weight loss at 10 mg/kg, IG qd administered 5 days a week and measured on day 9 in presence of vorinostat; type: organism-based; details: in vivo, po, 216 h, time 9 day
MOLM-13 [14] = assay: Induction of cell cycle arrest in human MOLM-13 cells assessed as accumulation of cells at G0/G1 phase at 0.05 uM measured for 48 hrs in presence of vorinostat by PI/RNase staining based flow cytometric analysis (reference value: 46.24 %); type: functional
MOLM-13 [15] = assay: Induction of cell cycle arrest in human MOLM-13 cells assessed as accumulation of cells at S-phase at 0.05 uM measured for 48 hrs in presence of vorinostat by PI/RNase staining based flow cytometric analysis (reference value: 42.95%); type: functional
MOLM-13 [16] = assay: Induction of cell cycle arrest in human MOLM-13 cells assessed as accumulation of cells at G0/G1 phase at 0.05 uM measured for 48 hrs by PI/RNase staining based flow cytometric analysis (reference value: 46.24 %); type: functional
MOLM-13 [17] = assay: Induction of apoptosis in human MOLM-13 cells assessed as necrotic cells at 0.1 uM incubated for 48 hrs in presence of vorinostat by Annexin V-FITC staining based flow cytometry analysis (reference value: 0.013 %); type: functional
MOLM-13 [18] = assay: Antitumor activity against human MOLM-13 cells xenografted BALB/c mouse assessed as reduction in tumor volume at 10 mg/kg, IG qd administered 5 days a week and measured on day 9 in presence of vorinostat; type: functional, organism-based; details: time 9.0 day
[19] = Toxicity in NOD/SCID mouse xenografted with human MOLM-13 cells assessed as increase in survival rate at 15 mg/kg, IG administered 5 days per week in presence of vorinostat by Kaplan Mayer survival analysis; type: organism-based; details: in vivo, po, 120 h, time 5 day
MOLM-13 [20] = assay: Induction of cell cycle arrest in human MOLM-13 cells assessed as accumulation of cells at G2M phase at 0.05 uM measured for 48 hrs in presence of vorinostat by PI/RNase staining based flow cytometric analysis (reference value: 10.81%); type: functional
MOLM-13 [21] = assay: Induction of apoptosis in human MOLM-13 cells assessed as early apoptotic cells at 0.1 uM incubated for 48 hrs by Annexin V-FITC staining based flow cytometry analysis (reference value: 4.07 %); type: functional
MOLM-13 [22] = assay: Induction of apoptosis in human MOLM-13 cells assessed as viable cells at 0.1 uM incubated for 48 hrs in presence of vorinostat by Annexin V-FITC staining based flow cytometry analysis (reference value: 94.5 %); type: functional; details: read-out: Activity
MOLM-13 [23] = assay: Induction of apoptosis in human MOLM-13 cells assessed as late apoptotic cells at 0.1 uM incubated for 48 hrs by Annexin V-FITC staining based flow cytometry analysis (reference value: 1.40 %); type: functional
MOLM-13 [24] = assay: Antitumor activity against human MOLM-13 cells xenografted BALB/c mouse assessed as tumor growth inhibition at 10 mg/kg, IG qd administered 5 days a week and measured on day 9 in presence of vorinostat; type: functional; details: MOLM-13, po, 216 h, time 9 day, read-out: TGI

CCc1nc(C(N)=O)c(Nc2ccc(N3CCC(N4CCN(c5ncc(C(=O)Nc6ccccc6N)cn5)CC4)CC3)c(OC)c2)nc1NC1CCOCC1
inhibition [1]: 4.3%

CCc1nc(C(N)=O)c(Nc2ccc(N3CCC(N4CCN(c5ncc(C(=O)NO)cn5)CC4)CC3)c(OC)c2)nc1NC1CCOCC1
inhibition [2]: 18.7%

CCc1nc(C(N)=O)c(Nc2ccc(N3CCN(C(=O)CCCCCCC(=O)NO)CC3)c(OC)c2)nc1NC1CCOCC1
IC50 (Histone deacetylase): 0.1473 µM

CCc1nc(C(N)=O)c(Nc2ccc(N3CCC(N4CCN(C(=O)CCCCCCC(=O)NO)CC4)CC3)c(OC)c2)nc1NC1CCOCC1
inhibition [2]: 27%

CCc1nc(C(N)=O)c(Nc2ccc(N3CCC(N4CCN(C(=O)CCCCCC(=O)NO)CC4)CC3)c(OC)c2)nc1NC1CCOCC1
inhibition [2]: 14%

CCc1nc(C(N)=O)c(Nc2ccc(N3CCN(CCCCCCC(=O)NO)CC3)c(OC)c2)nc1NC1CCOCC1
IC50 (Histone deacetylase): 0.33 µM
IC50 (MOLM-13 [3]): 0.01 µM
IC50 (KG-1): 1.44 µM
IC50 (THP-1): 1.55 µM
IC50 [4]: 0.0006 µM
IC50 (K562): 1.06 µM

CCc1nc(C(N)=O)c(Nc2ccc(N3CCC(N4CCN(Cc5ccc(C(=O)NO)cc5)CC4)CC3)c(OC)c2)nc1NC1CCOCC1
inhibition [2]: 18%

CCc1nc(C(N)=O)c(Nc2ccc(N3CCC(N4CCN(CCCCCCCC(=O)NO)CC4)CC3)c(OC)c2)nc1NC1CCOCC1
inhibition [2]: 28%

CCc1nc(C(N)=O)c(Nc2ccc(N3CCC(N4CCN(Cc5ccc(C(=O)Nc6ccccc6N)cc5)CC4)CC3)c(OC)c2)nc1NC1CCOCC1
inhibition [1]: 27.5%

CCc1nc(C(N)=O)c(Nc2ccc(N3CCC(N4CCN(Cc5ccc(/C=C/C(=O)NO)cc5)CC4)CC3)c(OC)c2)nc1NC1CCOCC1
inhibition [2]: 28%

CCc1nc(C(N)=O)c(Nc2ccc(N3CCN(CCC(=O)NO)CC3)c(OC)c2)nc1NC1CCOCC1
inhibition [2]: 10%

CCc1nc(C(N)=O)c(Nc2ccc(N3CCC(N4CCN(C)CC4)CC3)c(OC)c2)nc1NC1CCOCC1 [GILTERITINIB]
Activity [5]: Non-Toxic
Activity (MOLM-13 [6]): 44.47%
viability at 0.1 µM (MOLM-13 [7]): 53.5%
Activity (MOLM-13 [8]): 17.4%
IC50 at 48 h [9]: 0.97 µM
Activity (MOLM-13 [10]): 5.53%
Activity (MOLM-13 [11]): 0.36%
Activity (MOLM-13 [12]): 35%
Activity [13]: Non-Toxic
IC50 (MOLM-13 [3]): 0.012 µM
Activity (MOLM-13 [14]): 64.51%
IC50 (KG-1): 0.62 µM
IC50 (THP-1): 0.85 µM
Activity (MOLM-13 [15]): 28.26%
Activity (MOLM-13 [16]): 50%
Activity (MOLM-13 [17]): 0.88%
Activity (MOLM-13 [18]): Active
Activity [19]: Non-Toxic
Activity (MOLM-13 [20]): 7.24%
IC50 (K562): 0.99 µM
Activity (MOLM-13 [21]): 33.5%
viability at 0.1 µM (MOLM-13 [22]): 46.8%
Activity (MOLM-13 [23]): 12.7%
inhibition in vivo at 10 mg/kg (MOLM-13 [24]): 55.3%

CCc1nc(C(N)=O)c(Nc2ccc(N3CCN(CCCC(=O)NO)CC3)c(OC)c2)nc1NC1CCOCC1
inhibition [2]: 3%

CCc1nc(C(N)=O)c(Nc2ccc(N3CCC(N4CCN(C(=O)CCCC(=O)NO)CC4)CC3)c(OC)c2)nc1NC1CCOCC1
inhibition [2]: 27%

CCc1nc(C(N)=O)c(Nc2ccc(N3CCC(N4CCN(Cc5ccc(C(=O)NCc6ccc(/C=C/C(=O)NO)cc6)cc5)CC4)CC3)c(OC)c2)nc1NC1CCOCC1
IC50 (Histone deacetylase): 0.063 µM

CCc1nc(C(N)=O)c(Nc2ccc(N3CCN(CCCCC(=O)NO)CC3)c(OC)c2)nc1NC1CCOCC1
inhibition [2]: 1%

CCc1nc(C(N)=O)c(Nc2ccc(N3CCC(N4CCN(CCCCCC(=O)NO)CC4)CC3)c(OC)c2)nc1NC1CCOCC1
inhibition [2]: 36%

CCc1nc(C(N)=O)c(Nc2ccc(N3CCN(CCCCCC(=O)NO)CC3)c(OC)c2)nc1NC1CCOCC1
inhibition [2]: 25%

CCc1nc(C(N)=O)c(Nc2ccc(N3CCC(N4CCN(C(=O)CCCCC(=O)NO)CC4)CC3)c(OC)c2)nc1NC1CCOCC1
inhibition [2]: 10%

CCc1nc(C(N)=O)c(Nc2ccc(N3CCN(C(=O)CCCCCC(=O)NO)CC3)c(OC)c2)nc1NC1CCOCC1
IC50 (Histone deacetylase): 0.2043 µM

CCc1nc(C(N)=O)c(Nc2ccc(N3CCN(Cc4ccc(/C=C/C(=O)NO)cc4)CC3)c(OC)c2)nc1NC1CCOCC1
IC50 (Histone deacetylase): 0.0937 µM
